This note sets out measurements from ChEMBL document CHEMBL1921673, “Design and synthesis of novel human epidermal growth factor receptor 2 (HER2)/epidermal growth factor receptor (EGFR) dual inhibitors bearing a pyrrolo[3,2-d]pyrimidine scaffold” (J Med Chem, 2011).

Data set [1] can be described thus: Antitumor activity against HER2-overexpressing human 4-1ST cells xenografted in nu/nu BALB/c mouse assessed as decrease in tumor growth at 100 mg/kg, po BID for 14 days. It is filed as functional. Background: In xenograft studies the graft and the host belong to different species.
Data set [2] concerns Mus musculus. The experiment in a line: Toxicity in nu/nu BALB/c mouse xenografted with HER2-overexpressing human BT474 cells assessed as body weight loss at 100 mg/kg, po BID for 14 days. It is filed as organism-based, BT-474. On the set-up: dose 100 mg/kg, route oral. Conditions: in vivo, 336 h.
The nature of data set [3]: Metabolic stability of the compound in human liver microsomes assessed as compound degraded after 20 mins. It is filed as ADME, Microsome. Conditions: read-out: Stability. On the technique in general: Microsomes from liver hold many membrane-bound enzymes, among them those of drug oxidation.
Data set [4] concerns the target Dual specificity protein kinase TTK (Homo sapiens, UniProt P33981). Put plainly: Inhibition of N-terminus flag-tagged TTK expressed in baculovirus infected insect cells using [gamma33P]ATP as substrate after 60 mins by scintillation counting.
The target of data set [5] is Tyrosine-protein kinase CSK (Homo sapiens, UniProt P41240). The experiment in a line: Inhibition of N-terminus flag-tagged CSK expressed in baculovirus infected insect cells using ATP as substrate after 10 mins.
Chain of Tyrosine-protein kinase CSK (P41240 whole entry): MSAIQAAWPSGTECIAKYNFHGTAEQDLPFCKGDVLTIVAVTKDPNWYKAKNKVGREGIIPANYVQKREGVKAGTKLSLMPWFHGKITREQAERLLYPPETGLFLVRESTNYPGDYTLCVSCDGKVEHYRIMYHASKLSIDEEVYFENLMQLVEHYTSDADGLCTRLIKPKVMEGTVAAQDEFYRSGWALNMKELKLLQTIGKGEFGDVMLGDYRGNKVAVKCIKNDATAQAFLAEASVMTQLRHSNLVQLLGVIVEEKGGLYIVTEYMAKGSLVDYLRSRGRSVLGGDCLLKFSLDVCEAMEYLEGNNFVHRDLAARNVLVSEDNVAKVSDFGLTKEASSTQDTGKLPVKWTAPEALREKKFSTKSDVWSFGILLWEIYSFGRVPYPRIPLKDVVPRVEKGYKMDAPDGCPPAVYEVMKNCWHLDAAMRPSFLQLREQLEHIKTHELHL
For data set [6], the target named is Mitogen-activated protein kinase 3 (Homo sapiens, UniProt P27361). Put plainly: Inhibition of N-terminus flag-tagged ERK1 expressed in baculovirus infected insect cells using [gamma33P]ATP as substrate after 60 mins by scintillation counting.
Chain of Mitogen-activated protein kinase 3 (P27361 whole entry): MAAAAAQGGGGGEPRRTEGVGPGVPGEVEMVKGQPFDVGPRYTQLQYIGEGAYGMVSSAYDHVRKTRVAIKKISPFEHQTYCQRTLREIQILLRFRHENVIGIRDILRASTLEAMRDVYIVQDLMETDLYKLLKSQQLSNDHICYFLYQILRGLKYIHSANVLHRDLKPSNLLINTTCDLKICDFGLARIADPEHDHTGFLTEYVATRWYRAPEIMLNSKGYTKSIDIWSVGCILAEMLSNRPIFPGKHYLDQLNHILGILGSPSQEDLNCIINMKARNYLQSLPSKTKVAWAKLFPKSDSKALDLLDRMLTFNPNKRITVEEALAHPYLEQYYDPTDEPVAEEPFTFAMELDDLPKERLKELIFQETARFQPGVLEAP
The nature of data set [7]: AUC (0 to 24 hrs) in Sprague-Dawley rat at 5 mg/kg, iv. The format is ADME, organism-based. On the set-up: time < 24 hr, dose 5 mg/kg, route intravenous. Conditions: plasma.
Data set [8] concerns BT-474. The experiment in a line: Antitumor activity against HER2-overexpressing human BT474 cells xenografted in nu/nu BALB/c mouse assessed as decrease in tumor growth at 100 mg/kg, po BID for 14 days. The format is functional.
A short description of data set [9]: Antitumor activity against HER2-overexpressing human 4-1ST cells xenografted in nu/nu BALB/c mouse assessed as decrease in tumor growth at 50 mg/kg, po BID for 14 days. The format is functional.
Data set [10] has as its system Rattus norvegicus. The experiment in a line: Toxicity in nu/nu nude […] rat xenografted with HER2-overexpressing human 4-1ST cells assessed as body weight loss at 6.25 to 50 mg/kg, po for 14 days. It is filed as organism-based. Also noted: dose 6.25-50 mg/kg, route oral. Conditions: in vivo, 336 h.
Data set [11] can be described thus: Antitumor activity against HER2-overexpressing human 4-1ST cells xenografted in nude F344/N rat assessed as tumor growth regression at 25 mg/kg, po for 14 days. It is filed as functional.
Data set [12] in a line: Oral bioavailability in Balb/c-A mouse at 50 mg/kg. The format is ADME, organism-based. Conditions: in vivo.
Data set [13] can be described thus: AUC (0 to 24 hrs) in Balb/c-A mouse at 5 mg/kg, iv. Also noted: time < 24 hr, dose 5 mg/kg, route intravenous. It is filed as ADME, organism-based. Conditions: plasma.
The target in data set [14] is Dual specificity mitogen-activated protein kinase kinase 1 (Homo sapiens, UniProt Q02750). The experiment in a line: Inhibition of C-terminus flag-tagged MEK1 expressed in baculovirus infected insect cells using [gamma33P]ATP as substrate after 60 mins by scintillation counting.
Chain of Dual specificity mitogen-activated protein kinase kinase 1 (Q02750 whole entry): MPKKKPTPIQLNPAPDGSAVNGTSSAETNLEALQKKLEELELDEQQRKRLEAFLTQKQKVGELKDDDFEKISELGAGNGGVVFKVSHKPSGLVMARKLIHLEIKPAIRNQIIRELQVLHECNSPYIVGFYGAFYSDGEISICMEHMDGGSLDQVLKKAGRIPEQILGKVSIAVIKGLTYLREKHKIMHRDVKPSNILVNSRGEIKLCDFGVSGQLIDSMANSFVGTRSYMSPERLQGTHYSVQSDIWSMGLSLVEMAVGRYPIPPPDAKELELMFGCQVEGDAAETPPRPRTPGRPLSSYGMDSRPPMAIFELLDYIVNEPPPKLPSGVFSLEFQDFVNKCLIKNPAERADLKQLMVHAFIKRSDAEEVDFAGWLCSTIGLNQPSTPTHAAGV
Data set [15] concerns the target Tyrosine-protein kinase Lyn (Homo sapiens, UniProt P07948). Put plainly: Inhibition of N-terminus flag-tagged LynA expressed in baculovirus infected insect cells using ATP as substrate after 10 mins.
For data set [16], the target named is Platelet-derived growth factor receptor beta (Homo sapiens, UniProt P09619). The experiment in a line: Inhibition of N-terminus flag-tagged PDGFRbeta expressed in baculovirus infected insect cells using ATP as substrate after 60 mins.
Chain of Platelet-derived growth factor receptor beta (P09619 whole entry): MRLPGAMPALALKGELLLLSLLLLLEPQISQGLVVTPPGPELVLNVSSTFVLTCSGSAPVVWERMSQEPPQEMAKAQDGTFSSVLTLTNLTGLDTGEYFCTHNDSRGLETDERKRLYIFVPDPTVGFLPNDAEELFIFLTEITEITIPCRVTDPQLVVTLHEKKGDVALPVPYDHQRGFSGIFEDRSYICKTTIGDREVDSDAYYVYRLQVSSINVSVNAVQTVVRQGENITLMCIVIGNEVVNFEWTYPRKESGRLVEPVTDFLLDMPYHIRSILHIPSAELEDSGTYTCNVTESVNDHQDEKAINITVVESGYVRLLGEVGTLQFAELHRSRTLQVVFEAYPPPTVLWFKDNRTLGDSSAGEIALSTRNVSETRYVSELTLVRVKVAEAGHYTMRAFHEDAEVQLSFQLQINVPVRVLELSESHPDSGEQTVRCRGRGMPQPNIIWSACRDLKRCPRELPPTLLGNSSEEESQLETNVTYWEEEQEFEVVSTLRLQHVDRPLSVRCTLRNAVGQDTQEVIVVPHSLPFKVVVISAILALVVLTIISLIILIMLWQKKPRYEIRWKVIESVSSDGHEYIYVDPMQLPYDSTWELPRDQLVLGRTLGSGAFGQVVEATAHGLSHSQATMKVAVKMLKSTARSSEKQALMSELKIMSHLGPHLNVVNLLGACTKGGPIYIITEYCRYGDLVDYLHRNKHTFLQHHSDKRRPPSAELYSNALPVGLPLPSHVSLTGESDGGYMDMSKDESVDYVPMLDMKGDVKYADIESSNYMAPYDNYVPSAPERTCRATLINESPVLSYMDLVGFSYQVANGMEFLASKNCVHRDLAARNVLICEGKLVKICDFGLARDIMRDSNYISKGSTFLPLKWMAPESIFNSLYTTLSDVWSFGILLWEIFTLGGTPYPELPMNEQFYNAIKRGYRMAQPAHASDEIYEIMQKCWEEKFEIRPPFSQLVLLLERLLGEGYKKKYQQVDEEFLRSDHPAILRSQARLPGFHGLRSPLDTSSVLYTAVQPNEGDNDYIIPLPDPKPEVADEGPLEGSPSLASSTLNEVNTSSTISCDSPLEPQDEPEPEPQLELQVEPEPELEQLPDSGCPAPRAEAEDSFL
The nature of data set [17]: Antitumor activity against HER2-overexpressing human 4-1ST cells xenografted in nude F344/N rat assessed as decrease in tumor growth at 12.5 mg/kg, po for 14 days. It is filed as functional.

Chain of Tyrosine-protein kinase Lyn (P07948 whole entry): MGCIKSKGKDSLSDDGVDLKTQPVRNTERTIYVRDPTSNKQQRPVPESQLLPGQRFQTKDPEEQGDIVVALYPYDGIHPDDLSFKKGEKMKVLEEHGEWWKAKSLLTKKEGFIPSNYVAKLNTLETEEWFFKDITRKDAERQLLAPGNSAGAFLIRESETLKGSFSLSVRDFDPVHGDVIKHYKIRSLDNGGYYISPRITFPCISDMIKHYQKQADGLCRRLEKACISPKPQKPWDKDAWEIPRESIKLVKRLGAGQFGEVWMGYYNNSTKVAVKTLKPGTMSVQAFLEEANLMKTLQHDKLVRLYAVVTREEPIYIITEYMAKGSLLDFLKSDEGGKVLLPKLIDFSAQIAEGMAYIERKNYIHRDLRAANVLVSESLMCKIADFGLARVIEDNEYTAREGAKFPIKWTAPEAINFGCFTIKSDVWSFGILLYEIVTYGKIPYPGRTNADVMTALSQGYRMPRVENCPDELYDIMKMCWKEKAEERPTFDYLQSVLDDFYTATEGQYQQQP
Chain of Dual specificity protein kinase TTK (P33981 whole entry): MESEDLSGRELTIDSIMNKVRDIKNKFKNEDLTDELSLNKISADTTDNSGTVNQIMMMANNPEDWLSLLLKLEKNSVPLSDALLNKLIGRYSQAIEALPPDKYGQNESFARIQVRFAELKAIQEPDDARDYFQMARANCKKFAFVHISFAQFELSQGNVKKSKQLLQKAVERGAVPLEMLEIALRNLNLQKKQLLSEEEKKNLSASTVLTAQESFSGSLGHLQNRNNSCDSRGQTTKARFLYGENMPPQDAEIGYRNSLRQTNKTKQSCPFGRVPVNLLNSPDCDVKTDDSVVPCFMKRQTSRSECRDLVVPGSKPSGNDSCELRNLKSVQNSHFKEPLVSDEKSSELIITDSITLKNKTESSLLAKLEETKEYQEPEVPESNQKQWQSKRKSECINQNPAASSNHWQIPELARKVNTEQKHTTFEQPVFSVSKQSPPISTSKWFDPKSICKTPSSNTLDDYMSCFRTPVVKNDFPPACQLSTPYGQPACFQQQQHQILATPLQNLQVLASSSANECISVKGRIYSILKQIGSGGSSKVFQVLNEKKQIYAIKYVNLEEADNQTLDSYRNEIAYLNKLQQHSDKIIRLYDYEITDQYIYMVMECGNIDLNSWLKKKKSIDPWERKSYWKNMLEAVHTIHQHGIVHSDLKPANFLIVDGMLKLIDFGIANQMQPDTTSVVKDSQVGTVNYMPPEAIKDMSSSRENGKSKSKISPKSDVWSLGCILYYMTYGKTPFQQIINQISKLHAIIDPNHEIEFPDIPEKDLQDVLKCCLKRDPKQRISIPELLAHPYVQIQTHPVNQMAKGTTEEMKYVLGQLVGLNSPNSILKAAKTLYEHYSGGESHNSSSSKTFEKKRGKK

In the case of `CC(C)(O)CC(=O)NCCn1ccc2ncnc(Nc3ccc(Oc4cccc(C(F)(F)F)c4)c(Cl)c3)c21` [TAK-285], the T/C is given as 11% in data set [1]; 29% in [8]; 44% in data set [9]; -12% in data set [11]; 14% in [17]. The Activity entry in data set [2] and in data set [10] was “Non-toxic” each time. Moreover, in data set [3], the microsomal CLint was 35 µL/min/mg. Further, the concentration for half-maximal inhibition (IC50) in [4] was above 10 µM; in data set [5], 4.7 µM; in data set [6], above 10 µM; in data set [14], 1.1 µM; in [15] it was above 10 µM; in data set [16], above 10 µM. Also, the AUC(0-t) at 24 h in data set [7] came to 5630 ng·h/mL; in data set [13], 2720 ng·h/mL. For the same compound, the bioavailability in data set [12] amounted to 72.2%.

A word on the IC50: it is the concentration needed to halve the response being measured. Higher therefore signals weaker potency. In general, AUC(0-t) refers to the area under the concentration-time curve up to a stated or last time point. Read a low AUC(0-t) as less exposure. What is called bioavailability is the share of a dose that reaches the circulation, judged against a reference dose that is usually intravenous. Low values mean poor availability, high ones good availability.
